These results are taken from PubChem BioAssay AID1996.

In brackets after ≈: the same amount, converted by molar mass.

For the series the following is noted: buffer; pH 7.4; 200.0 µM.
What is called solubility (kinetic) is the concentration staying in solution when a stock, usually in DMSO, is diluted into the medium. `Cc1ccccc1C(=O)NC(=S)NCc1cccnc1` had a solubility (kinetic) greater than 42.8 µg/mL.
Compound `CS(=O)(=O)c1ccc(C(=O)N2CC(=O)Nc3ccccc32)cc1` gave a kinetic solubility greater than 49.6 µg/mL.
Compound `O=C(NCCCN1CCOCC1)c1cc2ccccc2cc1O` showed a kinetic solubility greater than 47.2 µg/mL.
For `CCNC(=O)COC(=O)CCC(=O)c1ccc(F)cc1`, the solubility (kinetic) is greater than 42.2 µg/mL.
In turn, `CCc1ccc(NC(=O)Cn2cnc([N+](=O)[O-])c2)cc1` returned a kinetic solubility of 23 µg/mL (≈ 83.9 µM).
Consider `CCCCN1C(C)=CC(=C2C(=O)c3ccccc3C2=O)C=C1C`, for which the kinetic solubility is less than 0.7 µg/mL.
Compound `O=C(Cn1cc([N+](=O)[O-])cn1)NC1CCCCCC1` registered a solubility (kinetic) greater than 39.9 µg/mL.
With `O=S(=O)(c1ccccc1)c1nc(-c2ccccc2)oc1N1CCOCC1`, the kinetic solubility was 1.2 µg/mL (≈ 3.24 µM).
In turn, `NC(=O)c1ccc(Nc2ccc3c(c2)CCC3)c([N+](=O)[O-])c1` gave a kinetic solubility of 2.6 µg/mL (≈ 8.74 µM).
In the case of `COc1ccc(CC(=O)Nc2ccccc2-c2ccccc2)cc1OC` it was 43.9 µg/mL (≈ 126 µM); in that of `CCOCCCNCc1cc(Cl)cc(Cl)c1OCC.Cl`, 44 µg/mL.
Compound `c1ccc(OCc2noc(CN3CC[C@@H]4CCCC[C@H]4C3)n2)cc1` displayed a solubility (kinetic) of 6 µg/mL (≈ 18.3 µM).
In the case of `Cc1cc(C)c(C)c(S(=O)(=O)NCC(=O)Nc2ccc(F)cc2)c1C`, the solubility (kinetic) came out at 3.9 µg/mL (≈ 10.7 µM).
Then `Cn1c(=O)oc2cc(S(=O)(=O)NC3CCCCC3)ccc21`, with greater than 46.6 µg/mL; and `Cc1nn(C)cc1CN(C)S(=O)(=O)c1cccc([N+](=O)[O-])c1`, with greater than 48.7 µg/mL; and `COc1cccc(NC(=S)N(CCN(C)C)C(C)c2cccnc2)c1` (centres undefined), with greater than 53.8 µg/mL.
Regarding `COc1ccc(C)cc1NC(=O)COC(=O)c1ccc([N+](=O)[O-])o1`, the kinetic solubility worked out at 3.4 µg/mL (≈ 10.2 µM).
Compound `N/C(=N\OC(=O)c1ccc(Br)cc1)c1cccc([N+](=O)[O-])c1` returned a solubility (kinetic) of 0.8 µg/mL (≈ 2.2 µM).
`CN1C(=O)C(=O)N(c2cccc(C(F)(F)F)c2)C1=O` yielded a solubility (kinetic) of 39.9 µg/mL (≈ 147 µM).
Then `O=C(Nc1c[nH]c(=O)[nH]c1=O)c1ccccc1Br`, with greater than 46.5 µg/mL; and `O=C(O)c1ccc(OCC(F)(F)F)nc1`, with greater than 33.2 µg/mL.
On to `Cn1c(CC(=O)NNC(=O)c2ccccc2F)nc2ccccc21`, for which the kinetic solubility is greater than 48.9 µg/mL.
`CCOC(=O)N1CCN(C(=O)c2ccc(OCC)cc2)CC1` gave a solubility (kinetic) greater than 46 µg/mL.
In the case of `S=C(NCc1ccccc1)Nc1nccs1` it was 3 µg/mL (≈ 12 µM); in that of `O=C(CSc1ncnc2ccccc12)N1CCNC1=O`, greater than 43.2 µg/mL; in that of `Cc1nn2c(nc1=O)NNC2(C)C(C)(C)C` (centres undefined), greater than 33.5 µg/mL.
Then `Cc1csc(=O)n1CCC(=O)NCc1ccc(F)cc1`, with greater than 44.2 µg/mL; and `CN1CCCN(S(=O)(=O)c2cccc(C#N)c2)CC1.Cl`, with greater than 47.4 µg/mL.
Then `O=C(NCc1ccccc1F)C1CCCN(c2cnccn2)C1` (centres undefined), with 44.7 µg/mL (≈ 142 µM).
On to `COc1ccc(N2CCN(C(CNS(=O)(=O)c3ccc(C)cc3)c3ccccc3)CC2)cc1` (centres undefined), for which the solubility (kinetic) turned out to be 1.4 µg/mL (≈ 3.01 µM).
In turn, `O=S(=O)(Nc1ccc(C(F)(F)F)cc1)c1cccs1` displayed a kinetic solubility of 45.1 µg/mL (≈ 147 µM).
The compound `Nc1c(C(=O)c2ccccc2)oc2ccc([N+](=O)[O-])cc12` had a kinetic solubility of 1.3 µg/mL (≈ 4.61 µM).
Turning to `O=[N+]([O-])c1ccc(Cc2ccccn2)cc1`, the solubility (kinetic) was greater than 32.1 µg/mL.
In the case of `Cc1cc(C)c(S(=O)(=O)c2ccc(F)cc2C)c(=O)[nH]1`, the solubility (kinetic) was greater than 44.3 µg/mL.
Then `CCCc1nc(SCC(=O)c2ccc(OC)cc2)c2ccccc2n1`, with 1.4 µg/mL (≈ 3.97 µM).
The compound `OCc1nc2ccccc2n1Cc1c(F)cccc1Cl` gave a solubility (kinetic) of 14.4 µg/mL (≈ 49.5 µM).
For the compound `N/C(=N\OC(=O)c1cccs1)c1ccc(Cl)cc1`, the kinetic solubility was found to be 3.5 µg/mL (≈ 12.5 µM).
In the case of `CCCOc1ccc(CN(C)c2ncnc(N)n2)cc1` it was 13.5 µg/mL (≈ 49.4 µM); in that of `CN(CC(=O)Nc1ccc(F)c(F)c1F)C(=O)C1CCCO1` (centres undefined), greater than 47.4 µg/mL.
Regarding `CC(NC(=S)Nc1ccc(OC(F)F)c(Cl)c1)C(C)(C)C` (centres undefined), the kinetic solubility turned out to be 2.3 µg/mL (≈ 6.83 µM).
As to `COc1ccccc1Nc1nc(NCCCN(C)C)nc(N)c1[N+](=O)[O-]`, the kinetic solubility is greater than 54.2 µg/mL.
Consider `COc1ccc(C(=O)OCC(=O)NCC2CCCO2)c(F)c1` (centres undefined), for which the kinetic solubility was greater than 46.7 µg/mL.
`O=C(C(Cl)c1ccccc1)N1CCCC1` (centres undefined) came in with a solubility (kinetic) of 33.1 µg/mL (≈ 148 µM).
For the compound `Cc1ccc(OCC(=O)NCCCNC(=O)COc2ccc(C)cc2)cc1`, the kinetic solubility was 15.1 µg/mL (≈ 40.8 µM).
Turning to `CN(NC(=O)c1ccccc1F)c1ccc([N+](=O)[O-])cn1`, the solubility (kinetic) is greater than 43.5 µg/mL.
For `CCNc1nc(NCC)nc(OCC(=O)O)n1`, the solubility (kinetic) was greater than 36.2 µg/mL.
On to `N#Cc1ccsc1NC(=O)CCN1C(=O)C2CCCCC2C1=O` (centres undefined), for which the solubility (kinetic) is greater than 49.7 µg/mL.
The compound `Cc1ccccc1-n1cc[nH]c1=S` gave a kinetic solubility greater than 28.5 µg/mL.
Then `CCc1ccc(C(=O)COC(=O)CNC(=O)Cc2ccccc2)cc1`, with 36.6 µg/mL (≈ 108 µM).
In turn, `COc1ccc(NC(=O)c2cccnc2SC)cc1OC` showed a kinetic solubility of 19.2 µg/mL (≈ 63.1 µM).
Consider `O=C1NCC(COc2cccc3ccccc23)O1` (centres undefined), for which the solubility (kinetic) was greater than 36.5 µg/mL.
Regarding `CN(C)Cc1ccccc1CCc1ccccc1.Cl`, the kinetic solubility worked out at 23.9 µg/mL.
Consider `CCOC(=O)c1c(C)[nH]c(C)c1C=O`, for which the solubility (kinetic) is greater than 29.3 µg/mL.
Then `Cc1cc(C)n(-c2ccc(C(=O)N3CC(C)OC(C)C3)cc2)n1` (centres undefined), with greater than 47 µg/mL.
Then `Cc1ccc(CC(C(=O)O)C(C)C(=O)Nc2ccc(F)cc2)cc1` (centres undefined), with greater than 49.4 µg/mL; and `O=c1c2c3c(sc2nc(NCCO)n1-c1ccccc1)CCCC3`, with 6.8 µg/mL (≈ 19.9 µM).
With `Cc1cc(C)nc(N2CCCC(C(=O)Nc3ccc(F)cc3)C2)n1` (centres undefined), the solubility (kinetic) is 1.2 µg/mL (≈ 3.65 µM).
Then `O=C(NCCNC(=O)c1ccc(F)cc1)c1ccc(F)cc1`, with 12.9 µg/mL (≈ 42.4 µM); and `CCOC(=O)C(=CNc1ccc(Oc2cncc(Cl)c2)nc1)C(=O)OCC`, with 5 µg/mL (≈ 12.8 µM); and `CN(C)c1nc(-c2ccccc2)ns1`, with 12.5 µg/mL (≈ 60.9 µM).
In the case of `O=C(Nc1nccs1)c1ccc2ccccc2n1` it was 5.6 µg/mL (≈ 21.9 µM); in that of `CCOc1ccc(C(C)NC(=O)Nc2ccc(F)cc2F)cc1` (centres undefined), 1.8 µg/mL (≈ 5.62 µM); in that of `CC(=O)c1c(C)[nH]c(C(=O)COC(=O)c2nccnc2N)c1C`, 11.9 µg/mL (≈ 37.6 µM).
In the case of `CCOc1ccc(Oc2ccccc2NC(=O)CCNC(C)=O)cc1` it was greater than 51.4 µg/mL; in that of `Cc1cc(C)cc(C(=O)NCC(=O)N2CCC(C(N)=O)CC2)c1`, greater than 47.6 µg/mL; in that of `Cc1ccc(-n2nc(-c3ccco3)cc2C(=O)O)cc1`, greater than 40.2 µg/mL.
Compound `Cc1ccc(S(=O)(=O)N2CCCCC2)cc1NC(=O)CSc1nc(N)cc(=O)[nH]1` registered a solubility (kinetic) of 52.7 µg/mL (≈ 120 µM).
In the case of `COc1ccc(NC(=O)NC(C)c2ccccc2)cc1` (centres undefined), the solubility (kinetic) was 15.5 µg/mL (≈ 57.3 µM).
The compound `Cc1cc(S(=O)(=O)NCCCn2ccnc2)c(C)cc1Cl` registered a solubility (kinetic) greater than 49.2 µg/mL.
On to `COc1ccc(N2C(=O)C(CN3CCCCC3)C2c2ccccc2)cc1` (centres undefined), for which the solubility (kinetic) amounted to 51.7 µg/mL (≈ 148 µM).
`O=C1NC(=S)N/C1=C/c1cccnc1`: the kinetic solubility is greater than 30.8 µg/mL.
The compound `N#CCN1CCC2(O)CCCCC2C1c1ccc2c(c1)OCO2` (centres undefined) displayed a solubility (kinetic) of 42 µg/mL (≈ 134 µM).
For the compound `CC(C)(C)OC(=O)N1CCC(CNC(=O)c2ccc(F)cc2F)CC1`, the kinetic solubility came out at 51 µg/mL (≈ 144 µM).
Take `CCOc1ccc(CNC(c2ccccc2)c2ccccc2)cc1.Cl`: the kinetic solubility was less than 0.8 µg/mL.
As for `COC(=O)c1cn(CC(=O)Nc2ccc(F)cc2)c2ccccc12`, the solubility (kinetic) is less than 0.3 µg/mL.
`Cc1cccc(OC(C)C(=O)Nc2nccs2)c1` (centres undefined) gave a solubility (kinetic) of 37.9 µg/mL (≈ 144 µM).
The compound `CN(c1cccc(NC(=O)c2cccc([N+](=O)[O-])c2)c1)S(C)(=O)=O` displayed a solubility (kinetic) greater than 52.4 µg/mL.
In the case of `CCn1ncc(N2CCOCC2)c(Cl)c1=O` it was greater than 36.6 µg/mL.
The compound `COc1ccc(C(=O)Nc2nc(C)cc(C)n2)cc1` had a solubility (kinetic) greater than 38.6 µg/mL.
With `Cc1ccc(O)c(NC(=O)c2cc(-c3ccco3)on2)c1`, the solubility (kinetic) stood at 1.2 µg/mL (≈ 4.22 µM).
For `CCC(=O)Nc1c(-c2ccc3ccccc3c2)nc2ccccn12`, the solubility (kinetic) was 45.7 µg/mL (≈ 145 µM).
As for `CCCCC(=O)NC(=S)Nc1ccc(NC(=O)C(C)C)c(OC)c1`, the kinetic solubility worked out at 5.4 µg/mL (≈ 15.4 µM).
Turning to `CC(CNC(=O)c1ccccc1[N+](=O)[O-])NC(=O)c1ccccc1[N+](=O)[O-]` (centres undefined), the kinetic solubility is greater than 55.9 µg/mL.
On to `Cc1cc(C(=O)NCC2COc3ccccc3O2)c2ccccc2n1` (centres undefined), for which the solubility (kinetic) stood at 9.3 µg/mL (≈ 27.8 µM).
The compound `CC(=O)c1ccc(NC(=S)NC2CCCC(C)C2C)cc1` (centres undefined) had a solubility (kinetic) of 9.7 µg/mL (≈ 31.9 µM).
Turning to `O=C(CNC(=O)C1COc2ccccc2O1)Nc1ccc(F)c(F)c1` (centres undefined), the kinetic solubility was 18.3 µg/mL (≈ 52.5 µM).
In turn, `c1ccn2cc(-c3ccc4c(c3)OCCO4)nc2c1` showed a solubility (kinetic) greater than 37.8 µg/mL.
Then `CCOc1cc(/C=C2\N=C(C)OC2=O)cc(Cl)c1OCC(=O)OC`, with 23.1 µg/mL (≈ 65.3 µM); and `O=C(Nc1ccccc1-c1ccccc1)c1ccccc1Br`, with 33.7 µg/mL (≈ 95.7 µM); and `O=C(COC(=O)CCC(=O)c1ccc(Cl)cc1)NCc1ccc(F)cc1`, with 6.4 µg/mL (≈ 16.9 µM).
In the case of `O=C(NCCc1ccc(Cl)cc1)C12CC3CC(CC(O)(C3)C1)C2`, the solubility (kinetic) stood at 46.9 µg/mL (≈ 140 µM).
`CN(CC(=O)Nc1ccc(F)cc1)C(=O)CSc1nnc(Cc2ccccc2)o1` came in with a kinetic solubility greater than 62.2 µg/mL.
The compound `O=C1/C(=C/c2cccs2)SC(=S)N1c1cccc(O)c1` showed a kinetic solubility of 1 µg/mL (≈ 3.13 µM).
The compound `Cc1ccc(N2C(=O)CC(Cc3ccc(Cl)cc3)C2=O)cc1` (centres undefined) returned a solubility (kinetic) of 7.1 µg/mL (≈ 22.6 µM).
With `Cc1ccc(NC(=O)COc2ccc(Br)cn2)cc1`, the solubility (kinetic) is 17.7 µg/mL (≈ 55.1 µM).
The compound `O=C(NCCc1c[nH]c2ccccc12)c1ccccc1` displayed a kinetic solubility of 34.7 µg/mL (≈ 131 µM).
Compound `O=[N+]([O-])c1ccc(COc2ncnc3ccccc23)cc1` came in with a solubility (kinetic) of 27.7 µg/mL (≈ 98.5 µM).
Compound `COC(=O)c1ccc(Nc2ccc3nonc3c2[N+](=O)[O-])cc1` registered a solubility (kinetic) of less than 0.2 µg/mL.
Then `N/C(COc1cc(Cl)cc(Cl)c1)=N\O`, with 34.3 µg/mL (≈ 146 µM).
Compound `CCCn1c(SCC(=O)N2CC(=O)Nc3ccccc32)n[nH]c1=O` gave a kinetic solubility greater than 52.1 µg/mL.
For `CCCNC(=S)N1CCC(NC(=O)c2ccc(C)cc2)CC1`, the solubility (kinetic) worked out at 7.5 µg/mL (≈ 23.5 µM).
In the case of `COc1ccc2cc(CCl)c(Cl)nc2c1`, the kinetic solubility was found to be 19.2 µg/mL (≈ 79.3 µM).
On to `CN(C(=O)COC(=O)c1cc2ccccc2oc1=O)C1CCCCC1`, for which the solubility (kinetic) stood at 47.7 µg/mL (≈ 139 µM).
As for `CCCCS(=O)(=O)N1CCCC(C(=O)Nc2ccc(Cl)cn2)C1` (centres undefined), the solubility (kinetic) was determined as 19.9 µg/mL (≈ 55.3 µM).
